Experimental data as given in patent US7638505B2, “Organophosphoric derivatives useful as anti-parasitic agents” (priority 2005, dated 2009).
Where two headings read alike, the source gives them in different places.

Assays:
[1] = test system: Plasmodium falciparum strain 3D7; test: in vitro anti-malarial activity, [3H]hypoxanthine incorporation, strain 3D7; type: cell-based; conditions: P. falciparum strain 3D7, intraerythrocytic stages
Description: (§1) The in vitro anti-malarial activity of some of the compounds prepared in example 1 was determined as follows. Intraerythrocytic stages of the Plasmodium falciparum strains 3D7 and Dd2 were respectively incubated with serial dilutions of the relevant compounds and the viability of the parasites was assessed by their ability to incorporate [^3H]hypoxanthine into DNA. Inhibition results were expressed as IC50.

[2] = test system: Plasmodium falciparum strain Dd2; test: in vitro anti-malarial activity, [3H]hypoxanthine incorporation, strain Dd2; type: cell-based; conditions: for activity in the Dd2 cell line with respect to the reference compounds fosmidomycin and FR900098: same conditions, similar experimental setup
Description: as §1

[3] = test system: Plasmodium falciparum strain Dd2; conditions: P. falciparum Dd2, WO 2005/048715; cited from earlier work
Plasmodium falciparum = conditions: cited from earlier work
Plasmodium vinckei = conditions: cited from earlier work
[4] = in vivo; cited from earlier work
[5] = test system: acute, uncomplicated Plasmodium falciparum malaria; conditions: clinical trials, Gabon and Thailand; cited from earlier work
[6] = Plasmodium falciparum, DD2, read-out: IC50 (μM) Dd2

## CC(=O)N(O)CCC(c1ccc(Cl)c(Cl)c1)P(=O)(O)O (centres unmarked) [Compound 2e, 3-(N-hydroxyacetamido)-1-(3,4-dichlorophenyl)propylphosphonic acid]
[1]; Plasmodium falciparum
  IC50: 0.25 µM
[2]; [6]
  IC50: 0.09 µM

## O=CN(O)CCC(c1ccccc1)P(=O)(O)O.OCCNCCO (stereo not drawn) [α-phenyl-fosmidomycin diethanolammonium salt]
[3]
  IC50 value relative to fosmidomycin (times less): 4.5 times

## CC(=O)N(O)CCC(c1ccccc1)P(=O)(O)O.OCCNCCO (stereo not drawn) [α-phenyl-FR900098 diethanolammonium salt]
[3]
  IC50 value relative to FR900098: higher than FR900098

## CC(=O)N(O)CCC(c1ccc(C#N)cc1)P(=O)(O)O.N.N (centres unmarked) [Compound 104b, Bisammonium 3-[N-acetyl. N-(hydroxy)amino]-1-(4-cyanophenyl)-propylphosphonate]
[2]
  activity in the Dd2 cell line with respect to the reference compounds fosmidomycin and FR900098: substantial higher activity

## CC(=O)N(O)CCCP(=O)(O)O [FR900098, reference compound]
[1]
  IC50: 0.32 µM
Plasmodium falciparum
  activity relative to fosmidomycin against Plasmodium falciparum in vitro: approximately twice more active than fosmidomycin
[2]; P. falciparum strain Dd2, intraerythrocytic stages, read-out: IC50 (μM) Dd2
  IC50: 0.18 µM
Plasmodium vinckei
  activity relative to fosmidomycin in Plasmodium vinckei mouse model: approximately twice more active than fosmidomycin

## COc1ccc(C(CCN(O)C=O)P(=O)(O)O)cc1 (centres unmarked) [Compound 1c, 3-(N-hydroxyformamido)-1-(4-methoxyphenyl)propylphosphonic acid]
[1]; Plasmodium falciparum
  IC50: 0.36 µM
[2]; [6]
  IC50: 0.2 µM

## O=CN(O)CCCP(=O)(O)O [fosmidomycin]
[4]
  plasma half-life: short
  resorption rate: moderate
[1]; Plasmodium falciparum
  IC50: 1.1 µM
[2]; [6]
  IC50: 0.36 µM
[5]
  treatment of patients suffering from acute, uncomplicated Plasmodium falciparum malaria: proved to be efficient

## N#Cc1ccc(C(CCN(O)C=O)P(=O)(O)O)cc1 (centres unmarked) [Compound 105, 3-[N-formyl,N-(hydroxy)amino]-1-(4-cyanophenyl)-propylphosphonic acid]
[2]
  activity in the Dd2 cell line with respect to the reference compounds fosmidomycin and FR900098: substantial higher activity

## O=CN(O)CCC(c1ccc(Cl)c(Cl)c1)P(=O)(O)O (centres unmarked) [Compound 1e, 3-(N-hydroxyformamido)-1-(3,4-dichlorophenyl)propylphosphonic acid]
[1]; Plasmodium falciparum
  IC50: 0.09 µM
[2]; Plasmodium falciparum, P. falciparum strain Dd2, intraerythrocytic stages, read-out: IC50 (μM) Dd2
  IC50: 0.028 µM
[2]; inhibition of parasite growth, strain not named in the sentence (table: Dd2 and 3D7)
  in vitro antimalarial activity relative to fosmidomycin: twelve-fold more active than fosmidomycin
[2]; strain not named in the sentence (table: Dd2 and 3D7)
  in vitro antimalarial activity relative to FR900098: exceeds the activity of FR900098

## CC(=O)N(O)CCC(c1ccc(Cl)cc1)P(=O)(O)O (centres unmarked) [Compound 2d, 3-(N-hydroxyacetamido)-1-(4-chlorophenyl)propylphosphonic acid]
[1]; Plasmodium falciparum
  IC50: 0.35 µM
[2]; [6]
  IC50: 0.095 µM
